Laboratory results: patent US7851508B2, “Natural product derivatives with antimalarial activity” (Radix Pharmaceuticals, Inc., priority 2008, dated 2010)
In brackets after ≈: the same amount, converted by molar mass. Read-outs that look alike come from different tables or passages of the source.

How the values were obtained:
[1] = tested on: P. falciparum malaria parasite clone D6 (chloroquine sensitive); assay: In vitro anti-malarial activity, [3H]hypoxanthine uptake, D6 clone; format: cell-based, Plasmodium falciparum
Description: (§1) For in vitro toxicological studies, the following cell line was chosen: human adult liver epithelial cells (THLE-3). THLE-3 cells express phenotypic characteristics of normal adult liver epithelial cells and constitute a valuable model for pharmacotoxicological studies.
(§2) Two P. falciparum malaria parasite clones, W2 and D6, from Malaria Research and Reference Reagent Resource Center (MR4), were utilized in susceptibility testing. […] Test compounds were initially dissolved in DMSO and diluted 400 fold in RPMI 1640 culture medium supplemented with 25 mM Hepes, 32 mM NaHCO3 and 10% Albumax I (Gibco, N.Y.). These solutions were subsequently serially diluted two-fold with a Beckman Biomek® 1000 Robot (Fullerton, Calif.) over 11 different concentrations. The parasites were exposed to serial dilutions of each compound for 48 hrs and incubated at 37° C. with 5% O2, 5% CO2 and 90% N2 prior to the addition of [^3H]hypoxanthine. After a further incubation of 18 hrs, parasite DNA was harvested from each microtiter well using Packard Filtermate™ 196 Harvester (Meriden, Conn.) onto glass filters. Uptake of [^3H]hypoxanthine was measured with a Packard TopCount Liquid Scintillation Counter (Packard Instrument Co.).

[2] = tested on: P. falciparum malaria parasite clone W2 (chloroquine resistant); assay: In vitro anti-malarial activity, [3H]hypoxanthine uptake, W2 clone; format: cell-based, Plasmodium falciparum
Description: as §1, §2

[3] = tested on: human adult liver epithelial cells (THLE-3); assay: In vitro toxicity evaluation, Sulforhodamine B; format: cell-based; conditions: for IC50: Homo sapiens, read-out: IC50 THLE-3; for Selectivity, IC50 (THLE-3)/IC50 (D6): ratio THLE-3 vs D6
Procedure: as §1
Human adult liver epithelial cells (THLE-3) was maintained in tissue culture flasks in Waymouth's medium (Gibco, N.Y.) supplemented with 10% fetal bovine serum. Toxicity tests were performed in 96-well tissue culture plates using the protein-binding dye Sulforhodamine B. Test compounds were serially diluted and added to empty wells of the 96-well plate. THLE-3 cells in their culture medium were immediately seeded into the wells. Solvent blanks (no compound) were run in each test. After 72 hours under culture conditions cells were fixed to the plate by layering 50% TCA (4° C.) over the growth media in each well to produce a final TCA concentration of 10%. After incubating for one hour at 4° C., cultures were washed five times with tap water and left air-dried. Wells were stained for 30 min. with 0.4% (w/v) SRB in 1% acetic acid and washed four times with 1% acetic acid. Cultures were left air-dried and bound dye was solubilized with 10 mM Tris base (pH 10.5) for 15 min. on a gyratory shaker at room temperature. A Spectra MAX Plus Microtiter Plate Reader (Molecular Devices, Menlo Park, Calif.) was used to measure the optical density at wavelengths of 490-530 nm.

P. berghei in mice [4] = format: in vivo; conditions: for toxicity in mice: highest dose tested; for toxicity in mice / blood schizonticidal activity, in words: oral
Procedure: Drugs were mixed in 0.5% hydroxycellulose 0.1% Tween 80 and administered orally b.i.d. on days 3, 4 and 5 postinfection. CD-1 male or female mice, 5 weeks of age, were infected with 5×10^4 parasitized erythrocytes of Plasmodium berghei KBG-173 mm strain. Blood films were taken on day +6 and weekly thereafter until day +60. Parasitemias were calculated and SD90 value (dose suppressing 90% of the parasites in treated groups compared with the infected non-treated controls) on day +6 postinfection. Mortality data was tabulated for 60 days at which time all mice surviving that were blood film negative were considered cured.
[…] The activity of these compounds were compared with the untreated control: In untreated controls, death occurs within 8-9 days. Compounds which are effective against Plasmodium berghei infection increase the mean survival time of the infected animals when compared with the untreated controls. Mice that survive after thirty days and are free of parasites in blood are considered cured.
Efficacy of the drug is determined by the number of cures at the end of a 30 day period and the increase in mean survival time over the control (ΔMST). The effect of the test drugs also could be determined by the reduction of the parasitemia (percentage of the red blood cells detected with the parasites) over the untreated control on day 6, one day after the treatment is completed. Both these methods yield virtually identical results. If the dose of test compounds are inadequate, after initial clearance, residual parasites will multiply and relapses will occur within thirty days.

P. berghei in mice [5] = assay: Suppressive blood schizontocidal test in mice, subcutaneous single dose; format: in vivo, Plasmodium berghei; conditions: for Mice surviving 60 days/Mice infected and treated: 72 h after infection
Procedure: Mice were treated with a single dose of the compound administered subcutaneously 72 h after infection. Number of cures is the number of mice surviving, out of five, 60 days postinfection.

[6] = tested on: Plasmodium berghei KBG-173 in mice; assay: Prophylactic test in mice, oral; format: in vivo; conditions: for Mice infected and treated/Mice surviving day 60: oral; for protection from malaria (oral prophylactic activity): single dose of 0.5 mg/kg within 2 days pre-infection through 2 days post-infection
Procedure: Compounds were tested for oral prophylactic activity.
Drugs were mixed in 0.5% hydroxycellulose 0.1% Tween 80 and administered orally b.i.d. either on day 5, 4, 3, 2, or 1 prior to the infection or 1 or 2 days postinfection. CD-I male or female mice, 5 weeks of age, were infected with 5×10^4 parasitized erythrocytes of Plasmodium berghei KBG-173 mm strain. Blood films were taken on day +6 and weekly thereafter until day+30. […]

[7] = oral dose 0.25 mg/kg/day (total dose 0.75 mg/kg)
[8] = oral dose 1.0 mg/kg/day (total dose 3.0 mg/kg)
[9] = oral dose 4.0 mg/kg/day (total dose 12 mg/kg)
[10] = oral dose 16 mg/kg/day (total dose 48 mg/kg)
[11] = oral dose 64 mg/kg/day (total dose 192 mg/kg)
[12] = Plasmodium falciparum, D6; read-out: IC50 D6 Strain
[13] = Plasmodium falciparum, W2; read-out: IC50 W2 Strain
[14] = THLE3, THLE-3 cells, 72 hours, toxicity
[15] = subcutaneous single dose 1 mg/kg
[16] = subcutaneous single dose 2 mg/kg
[17] = subcutaneous single dose 4 mg/kg
[18] = subcutaneous single dose 8 mg/kg
[19] = subcutaneous single dose 16 mg/kg
[20] = subcutaneous single dose 32 mg/kg
[21] = subcutaneous single dose 64 mg/kg
[22] = subcutaneous single dose 128 mg/kg
[23] = day of treatment 1, dose 0.5 mg/kg
[24] = day of treatment 1, dose 2 mg/kg
[25] = day of treatment 1, dose 8 mg/kg
[26] = day of treatment 1, dose 32 mg/kg
[27] = day of treatment 2, dose 0.5 mg/kg
[28] = day of treatment 2, dose 2 mg/kg
[29] = day of treatment 2, dose 8 mg/kg
[30] = day of treatment 2, dose 32 mg/kg
[31] = day of treatment −1, dose 0.5 mg/kg
[32] = day of treatment −1, dose 2 mg/kg
[33] = day of treatment −1, dose 8 mg/kg
[34] = day of treatment −1, dose 32 mg/kg
[35] = day of treatment −2, dose 0.5 mg/kg
[36] = day of treatment −2, dose 2 mg/kg
[37] = day of treatment −2, dose 8 mg/kg
[38] = day of treatment −2, dose 32 mg/kg

| Compound | Selectivity, IC50 (THLE-3)/IC50 (D6) [3] | Mice surviving 60 days/Mice infected and treated (P. berghei in mice [4]; [7]) | Mice surviving 60 days/Mice infected and treated (P. berghei in mice [4]; [8]) | Mice surviving 60 days/Mice infected and treated (P. berghei in mice [4]; [9]) | Mice surviving 60 days/Mice infected and treated (P. berghei in mice [4]; [10]) | Mice surviving 60 days/Mice infected and treated (P. berghei in mice [4]; [11]) | IC50 [1, 12] [ng/mL] | inhibitory activity against chloroquine sensitive malaria strain (D-6), in words ([1]; in vitro) | IC50 [2, 13] [ng/mL] | inhibitory activity against chloroquine resistant malaria strain (W-2), in words ([2]; in vitro) | IC50 [3, 14] [ng/mL] | toxicity in mice (P. berghei in mice [4]) | blood schizonticidal activity, in words (P. berghei in mice [4]) | activity by the subcutaneous route of administration, in words (P. berghei in mice [5]) | Mice surviving 60 days/Mice infected and treated (P. berghei in mice [5]; [15]) | Mice surviving 60 days/Mice infected and treated (P. berghei in mice [5]; [16]) | Mice surviving 60 days/Mice infected and treated (P. berghei in mice [5]; [17]) | Mice surviving 60 days/Mice infected and treated (P. berghei in mice [5]; [18]) | Mice surviving 60 days/Mice infected and treated (P. berghei in mice [5]; [19]) | Mice surviving 60 days/Mice infected and treated (P. berghei in mice [5]; [20]) | other results |
| --- | --- | --- | --- | --- | --- | --- | --- | --- | --- | --- | --- | --- | --- | --- | --- | --- | --- | --- | --- | --- | --- |
| CCN(CC)CCCC(C)Nc1ccnc2cc(Cl)ccc12 (stereo not shown) [Chloroquine, reference compound] | 463 | 0/7 | 0/7 | 2/7 | 4/7 | 0/7 | – | – | – | – | – | – | – | – | – | – | – | – | – | – | IC50 ([1]; Plasmodium falciparum, D6, read-out: IC50 D6 Strain): 6.3 ng/mL (≈ 0.0197 µM); IC50 ([2]; Plasmodium falciparum, W2, read-out: IC50 W2 Strain): 108 ng/mL (≈ 0.338 µM); IC50 ([3]; THLE3, 72 h): 2920 ng/mL (≈ 9.13 µM) |
| C=C[C@@H]1[C@H]2OCOC2[C@@]23CC24c2nc5ccc(OC)cc5cc2C(=O)N[C@H]4CN13 (stereo partly shown) [Formula II] | 7.0 × 10^4 | 7/7 | 7/7 | 7/7 | 7/7 | 7/7 | 0.29 | equally potent inhibitory activity | 0.33 | equally potent inhibitory activity | 18900 | no mice showed toxicity | very active | excellent activity | 4/5 | 5/5 | 5/5 | 5/5 | 5/5 | 5/5 | Mice surviving 60 days/Mice infected and treated (P. berghei in mice [5]; [21]): 5/5; Mice surviving 60 days/Mice infected and treated (P. berghei in mice [5]; [22]): 5/5; Mice infected and treated/Mice surviving day 60 [6, 23]: 5/5; Mice infected and treated/Mice surviving day 60 [6, 24]: 5/5; Mice infected and treated/Mice surviving day 60 [6, 25]: 5/5; Mice infected and treated/Mice surviving day 60 [6, 26]: 5/5; Mice infected and treated/Mice surviving day 60 [6, 27]: 5/5; Mice infected and treated/Mice surviving day 60 [6, 28]: 5/5; Mice infected and treated/Mice surviving day 60 [6, 29]: 5/5; Mice infected and treated/Mice surviving day 60 [6, 30]: 5/5; Mice infected and treated/Mice surviving day 60 [6, 31]: 5/5; Mice infected and treated/Mice surviving day 60 [6, 32]: 5/5; Mice infected and treated/Mice surviving day 60 [6, 33]: 5/5; Mice infected and treated/Mice surviving day 60 [6, 34]: 5/5; Mice infected and treated/Mice surviving day 60 [6, 35]: 5/5; Mice infected and treated/Mice surviving day 60 [6, 36]: 5/5; Mice infected and treated/Mice surviving day 60 [6, 37]: 5/5; Mice infected and treated/Mice surviving day 60 [6, 38]: 5/5; protection from malaria (oral prophylactic activity) [6]: completely protected |
| C=C[C@@H]1[C@@H](OC)[C@H](OC)[C@@]23CC24c2cc5cc(OC)ccc5nc2C(=O)N[C@H]4CN13 (stereo partly shown) [Formula I] | 4.1 × 10^4 | 7/7 | 7/7 | 7/7 | 7/7 | 7/7 | 0.47 | equally potent inhibitory activity | 0.43 | equally potent inhibitory activity | 19400 | no mice showed toxicity | very active | excellent activity | 4/5 | 5/5 | 5/5 | 5/5 | 5/5 | 5/5 | Mice surviving 60 days/Mice infected and treated (P. berghei in mice [5]; [21]): 5/5; Mice surviving 60 days/Mice infected and treated (P. berghei in mice [5]; [22]): 5/5; Mice infected and treated/Mice surviving day 60 [6, 23]: 5/5; Mice infected and treated/Mice surviving day 60 [6, 24]: 5/5; Mice infected and treated/Mice surviving day 60 [6, 25]: 5/5; Mice infected and treated/Mice surviving day 60 [6, 26]: 5/5; Mice infected and treated/Mice surviving day 60 [6, 27]: 5/5; Mice infected and treated/Mice surviving day 60 [6, 28]: 5/5; Mice infected and treated/Mice surviving day 60 [6, 29]: 5/5; Mice infected and treated/Mice surviving day 60 [6, 30]: 5/5; Mice infected and treated/Mice surviving day 60 [6, 31]: 5/5; Mice infected and treated/Mice surviving day 60 [6, 32]: 5/5; Mice infected and treated/Mice surviving day 60 [6, 33]: 5/5; Mice infected and treated/Mice surviving day 60 [6, 34]: 5/5; Mice infected and treated/Mice surviving day 60 [6, 35]: 5/5; Mice infected and treated/Mice surviving day 60 [6, 36]: 5/5; Mice infected and treated/Mice surviving day 60 [6, 37]: 5/5; Mice infected and treated/Mice surviving day 60 [6, 38]: 5/5; protection from malaria (oral prophylactic activity) [6]: completely protected |
| OC(c1cc(C(F)(F)F)nc2c(C(F)(F)F)cccc12)C1CCCCN1 (stereo not shown) [Mefloquine, reference compound] | 794 | – | – | – | – | – | 3.4 (≈ 0.00899 µM) | – | 5.6 (≈ 0.0148 µM) | – | 2700 (≈ 7.14 µM) | – | – | – | – | – | – | – | – | – | – |
